Measured values as given in patent publication US8999359B2, “Composition that prevents damage to trees by harmful insects and a prevention method thereof” (Syngenta Crop Protection, Inc., priority 2004, dated 2015).

Key:
Format in all cases: in vivo
[1] = test system: Fall Webworm Larva; assay: Insecticidal activity test on fall webworm larva (spray)
Source text: 3. Insecticidal Activity Test on Fall Webworm Larva
The progress of the mortality of fall webworm larva was investigated after uniformly spraying feed trees (cherry) and fall webworm larva with spraying solutions at prescribed concentrations using a sprayer.

[2] = test system: Adult Japanese Pine Sawyer; assay: Insecticidal activity test on Japanese pine sawyer (sprayed pine feed trees)
Source text: 1. Insecticidal Activity Test on Japanese Pine Sawyer
After uniformly spraying pine feed trees with spraying solutions at prescribed concentrations using a sprayer, adult Japanese pine sawyers were used in testing to investigate the progress of their mortality and degree of infestation.

[3] = test system: Pine Caterpillar Larva; assay: Insecticidal activity test on pine caterpillar larva (spray)
Source text: 2. Insecticidal Activity Test on Pine Caterpillar Larva
The mortality of pine caterpillar larva was investigated after uniformly spraying pine feed trees and pine caterpillar larva with spraying solutions at prescribed concentrations using a sprayer.

| SMILES | Mortality (%) After 1 day ([1]; spraying solution 100 ppm) [%] | Mortality (%) After 3 days ([1]; spraying solution 100 ppm) [%] | Mortality (%) After 7 days ([1]; spraying solution 100 ppm) [%] | Mortality (%) After 1 day ([1]; spraying solution 200 ppm) [%] | Mortality (%) After 3 days ([1]; spraying solution 200 ppm) [%] | Mortality (%) After 7 days ([1]; spraying solution 200 ppm) [%] | Average infested area (cm2) ([2]; spraying solution 5 ppm) | Mortality (%) After 1 day ([2]; spraying solution 5 ppm) [%] | Mortality (%) After 3 days ([2]; spraying solution 5 ppm) [%] | Mortality (%) After 7 days ([2]; spraying solution 5 ppm) [%] | Average infested area (cm2) ([2]; spraying solution 10 ppm) | Mortality (%) After 1 day ([2]; spraying solution 10 ppm) [%] | Mortality (%) After 3 days ([2]; spraying solution 10 ppm) [%] | Mortality (%) After 7 days ([2]; spraying solution 10 ppm) [%] | Average infested area (cm2) ([2]; spraying solution 20 ppm) | Mortality (%) After 1 day ([2]; spraying solution 20 ppm) [%] | Mortality (%) After 3 days ([2]; spraying solution 20 ppm) [%] | Average infested area (cm2) ([2]; spraying solution 40 ppm) | Mortality (%) After 1 day ([2]; spraying solution 40 ppm) [%] | Mortality (%) After 1 day ([3]; spraying solution 100 ppm) [%] | other results |
| --- | --- | --- | --- | --- | --- | --- | --- | --- | --- | --- | --- | --- | --- | --- | --- | --- | --- | --- | --- | --- | --- |
| COP(=S)(OC)Oc1ccc([N+](=O)[O-])c(C)c1 [Fenitrothion, fenitrothion] | 0 | 10 | 20 | 30 | 60 | 70 | 23.3 | 10 | 10 | 10 | 8.6 | 0 | 50 | 80 | 2.4 | 20 | 70 | 1.6 | 90 | 10 | Mortality (%) After 1 day ([1]; spraying solution 500 ppm): 80%; Mortality (%) After 3 days ([1]; spraying solution 500 ppm): 100%; Mortality (%) After 1 day ([1]; spraying solution 1000 ppm): 100%; Mortality (%) After 7 days ([2]; spraying solution 20 ppm): 100%; Mortality (%) After 3 days ([2]; spraying solution 40 ppm): 100%; Mortality (%) After 3 days ([3]; spraying solution 100 ppm): 10%; Mortality (%) After 7 days ([3]; spraying solution 100 ppm): 20%; Mortality (%) After 1 day ([3]; spraying solution 200 ppm): 30%; Mortality (%) After 3 days ([3]; spraying solution 200 ppm): 60%; Mortality (%) After 7 days ([3]; spraying solution 200 ppm): 60%; Mortality (%) After 1 day ([3]; spraying solution 500 ppm): 80%; Mortality (%) After 3 days ([3]; spraying solution 500 ppm): 100%; Mortality (%) After 1 day ([3]; spraying solution 1000 ppm): 100% |
| CN1COCN(Cc2cnc(Cl)s2)/C1=N\[N+](=O)[O-] [Thiamethoxam, thiamethoxam] | 20 | 80 | 80 | 30 | 90 | 100 | 1.8 | 10 | 60 | 100 | 0.5 | 70 | 80 | 100 | 0.4 | 80 | 100 | 0.3 | 100 | 50 | Mortality (%) After 1 day ([1]; spraying solution 50 ppm): 0%; Mortality (%) After 3 days ([1]; spraying solution 50 ppm): 30%; Mortality (%) After 7 days ([1]; spraying solution 50 ppm): 50%; Mortality (%) After 1 day ([1]; spraying solution 300 ppm): 80%; Mortality (%) After 3 days ([1]; spraying solution 300 ppm): 100%; Mortality (%) After 1 day ([3]; spraying solution 20 ppm): 10%; Mortality (%) After 3 days ([3]; spraying solution 20 ppm): 40%; Mortality (%) After 7 days ([3]; spraying solution 20 ppm): 50%; Mortality (%) After 1 day ([3]; spraying solution 50 ppm): 20%; Mortality (%) After 3 days ([3]; spraying solution 50 ppm): 60%; Mortality (%) After 7 days ([3]; spraying solution 50 ppm): 80%; Mortality (%) After 3 days ([3]; spraying solution 100 ppm): 80%; Mortality (%) After 7 days ([3]; spraying solution 100 ppm): 100%; Mortality (%) After 1 day ([3]; spraying solution 200 ppm): 80%; Mortality (%) After 3 days ([3]; spraying solution 200 ppm): 100% |
